The values below come from patent US20060258635A1, “Use of a porphyrin compound for the treatment of skin fungi” (PHOTOBIOCHEM N.V., priority 2003, published 2006).

Series [1] concerns Trichophyton rubrum. Description: Photodynamic treatment of Trichophyton rubrum suspension culture (white light illumination, growth on MEA quantified by counting inoculates). The class given is cell-based. As to conditions: for result of photodynamic treatment of Trichophyton rubrum in suspension culture: 30 min incubation at 28° C., white light illumination, growth monitored during one week; for survival of the fungus after photodynamic treatment: after 7 days, over the whole concentration range used, control without photosensitizer is 100%; for photodynamic efficacy below a concentration of 3 μg/ml: below 3 μg/ml; for photodynamic efficacy below a concentration of 3 μg/ml / photodynamic efficacy above a concentration of 3 μg/ml: FIG. 1A; for photodynamic efficacy above a concentration of 3 μg/ml: above 3 μg/ml; for concentration at which a true fungicidal effect was detected: after photodynamic treatment, FIG. 1B. On the procedure: Materials The fungus Trichophyton rubrum was purchased from the Centraalbureau voor Schimmelcultures (CBS), Baarn, The Netherlands. Cultures were grown on Malt Extract Agar (MEA, Oxoid, Hampshire England). Suspension cultures were made in Dulbecco's Modified Eagle Medium (DMEM, GibcoBRL, UK) with 2.5 % Fetal Calf Serum (FCS, GibcoBRL, UK).
Solid cultures were maintained at 28° C., the suspension cultures at room temperature. Hematoporphyrin (HP) was purchased from Porphyrin Products Inc. (Utah, USA), 5,10,15-tris(4-methylpyridinium)-20-phenyl-[21H, 23H]-porphyrine trichloride (Sylsens B), deuteroporphyrin (DP) and deuteroporphyrin monomethylester (DP mme) were synthesized and kindly provided by the Department of Bio-Organic Photochemistry, Leiden University, the Netherlands (purity, checked with NMR was more than 99.5%). All the phthalocyanines were purchased from Porphyrin Products. Inc. (Utah, USA)) and Photofrin was purchased from Lederle Parenterals Inc. (Carolina, USA). Polyethylene-glycol was obtained from Genfarma B.V. (Maarssen, the Netherlands), while all other chemicals were purchased from J.T.Baker (Deventer, The Netherlands).
The following solvents were used: • 50 mM sodium phosphate buffer pH 7.4 for Sylsens B, HP, Photofrin, ZnPc and AlPcS4; • polyethyleneglycol:ethanol:water (3:2:5) for DP and DP mme; and • dimethylformamide (DMF) for PcS4.
Stock solutions of the photosensitizers of 2.5 mg/ml solvent were stored at […] for no longer than one week.
Photodynamic treatment Illuminations were performed with a lamp from “MASSIVE” (no.74900/21), 1× max. 500W-230 V-R7s, IP 44. To avoid heating of the samples to be illuminated, the white light produced by the lamp first passes a 2 cm thick water layer before reaching the samples. The light intensity was measured with a IL1400A photometer equipped with a SEL033/F/U detector (International Light, Newburyport, Mass., USA). Before illumination, the fungal culture suspensions were incubated with the photosensitizer in test tubes for 30 minutes at a temperature of 28° C. After incubation, the suspension cultures were illuminated in the presence of the sensitizer in 3 cm diameter culture dishes (Greiner, Alphen aan den Rijn, The Netherlands). After illumination, the contents of the culture dishes were transferred to dishes of 9 cm diameter containing MEA, placed in the incubator at 28° C. and growth was monitored during one week and quantified by counting the number of inoculates present.

In series [2] the test system is Trichophyton rubrum. The class given is cell-based.

Take Photofrin: in the series on Trichophyton rubrum [1], the “result of photodynamic treatment of Trichophyton rubrum in suspension culture” value (“result” below) is “merely a delay of growth in the first days” and the “survival of the fungus after photodynamic treatment” value is on record as 100%. The “concentration at which dark toxicity is displayed” value in the series on Trichophyton rubrum [2] is not below 90 µg/mL.

Consider `CC1=C(CCC(=O)O)c2cc3nc(cc4[nH]c(cc4C)cc4[nH]c(cc1n2)cc4C)C(C)=C3CCC(=O)O` [DP, deuteroporphyrin], for which the “photodynamic efficacy below a concentration of 3 μg/ml” value with Trichophyton rubrum [1] was “poorest efficacy”. Further, the dark toxicity result in the series on Trichophyton rubrum [2] is given as “expresses a dark toxicity at higher concentrations”.

Consider `CC1=C(CCC(=O)O)c2cc3[nH]c(cc4nc(cc5[nH]c(cc1n2)c(C)c5C(C)O)C(C)=C4C(C)O)c(C)c3CCC(=O)O` (stereo not drawn) [HP, Hematoporphyrin], for which, in the series on Trichophyton rubrum [2], the dark toxicity result is “no dark toxicity”.

With “deuteroporphyrin monomethylester [DP mme]”, in the series with Trichophyton rubrum [1], the “result” value is on record as “completely killing the fungus in almost all experiments”, the “photodynamic efficacy above a concentration of 3 μg/ml” value is reported as “analogous to the effect caused by the other porphyrins”, the “concentration at which a true fungicidal effect was detected” value came to 3 µg/mL and the “photodynamic efficacy below a concentration of 3 μg/ml” value was “the same as detected with HP”. In the series with Trichophyton rubrum [2], the dark toxicity entry is recorded as “expresses a dark toxicity at higher concentrations”.

`C[n+]1ccc(-c2c3nc(c(-c4cc[n+](C)cc4)c4ccc([nH]4)c(-c4cc[n+](C)cc4)c4nc(c(-c5ccccc5)c5ccc2[nH]5)C=C4)C=C3)cc1.[Cl-].[Cl-].[Cl-]` [Sylsens B, 5,10,15-tris(4-methylpyridinium)-20-phenyl-[21H, 23H]-porphyrine trichloride]: in the series on Trichophyton rubrum [1], the “result” value was “completely killing the fungus in almost all experiments”, the “photodynamic efficacy above a concentration of 3 μg/ml” value is given as “analogous to the effect caused by the other porphyrins”, the “concentration at which a true fungicidal effect was detected” value worked out at 3 µg/mL and the “photodynamic efficacy below a concentration of 3 μg/ml” value is on record as “better photodynamic efficacy”. Further, the “effectiveness among the porphyrin derivatives” value in the series with Trichophyton rubrum [1] (comparison of porphyrin derivatives) was “by far the most effective”. Besides, the dark toxicity entry with Trichophyton rubrum [2] is given as “no dark toxicity”.

On to `[Zn+2].c1ccc2c(c1)-c1nc-2nc2[n-]c(nc3nc([n-]c4nc(n1)-c1ccccc1-4)-c1ccccc1-3)c1ccccc21` [ZnPc], for which the “survival of the fungus after photodynamic treatment” value in the series on Trichophyton rubrum [1] was 100%.
